Source: patent US20230393140A1, “BINDING ASSAYS INVOLVING A PLURALITY OF SYNTHETIC COMPOUNDS, TARGETS, AND COUNTER TARGETS” (SRI International, priority 2020, published 2023)
Where two headings read alike, the source gives them in different places. Numbered stars: 1 amine (or outer) side, 2 acyl side, 3 side chain; on linkers, the order of the positions; unused ones are H or OH. Square brackets hold non-standard residues; d marks the D form. Peptide text beside a SMILES is read from it. * marks the point of attachment. 5FAM = O=C1OC2(c3ccc(O)cc3Oc3cc(O)ccc32)c2ccc(C(=O)*)cc21; NHCH2C6H4(4-CH2CONH2) = NC(=O)Cc1ccc(CN*)cc1; X1 = O=C(Cc1ccc(CN[*:1])cc1)[*:2]

Columns and labels:
ASGPR = biological target: T1, ASGPR (Homo sapiens, UniProt P07306); assay: MST binding affinity of resynthesized NNP hits to ASGPR; details: read-out: KD (nM) [95% conf. int]; MST; NNP1 library hit; target ASGPR; one-site binding model
T1 construct: purchased R&D Systems, Inc. 4394-AS
T1 sequence (P07306 1-291): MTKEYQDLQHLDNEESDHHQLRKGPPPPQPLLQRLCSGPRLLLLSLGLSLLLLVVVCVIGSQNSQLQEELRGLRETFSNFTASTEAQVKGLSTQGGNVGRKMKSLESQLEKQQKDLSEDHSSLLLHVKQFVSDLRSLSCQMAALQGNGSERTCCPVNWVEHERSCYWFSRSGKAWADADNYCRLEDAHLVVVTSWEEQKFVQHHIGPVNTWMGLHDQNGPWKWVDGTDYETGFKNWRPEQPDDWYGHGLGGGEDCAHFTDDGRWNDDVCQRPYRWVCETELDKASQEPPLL
Protocol: (§1) Hit binding affinity to various targets were determined using Microscale Thermophoresis (MST). MST experiments were performed on a Monolith NT.115pico (NanoTemper Technologies GmbH, Munich, Germany). Measurements were performed at room temperature, in triplicate with incubation periods of 15, 30 and 45 minutes. […] Targets were labeled using Nanotemper Monolith 2nd Generation Protein Labeling Kits. RED-MALEIMIDE (Maleimide-647-dye) labeling kit was used for K-Ras and RED-NHS (NHS-647-dye) labeling kit was used for IL-6, IL-6R, TNFα and ASGPR. The buffer for the ASGPR contained 20 mM HEPES pH 7.4, 150 mM NaCl, 10 mM MgCl2, 2 mM CaCl2, 0.05% Pluronic F-127, and 1 mM DTT; for IL-6 contained 20 mM HEPES pH 7.4, 150 mM KCl, 10 mM MgCl2, and 0.1% Pluronic F-127; for the soluble IL-6 receptor 20 mM HEPES pH 7.4, 150 mM NaCl, 10 mM MgCl2, and 0.05% Tween-20; for K-Ras 20 mM HEPES pH 7.4, 150 mM NaCl, 10 mM MgCl2, 0.05% Tween-20 and 1 mM DTT; for TNFα 10 mM HEPES pH 7.4, 150 mM NaCl, 10 mM MgCl2, 0.05% Polysorbate-20. Triplicate data was analyzed using MO.AffinityAnalysis software (NanoTemper Technologies GmbH).

IL-6R = biological target: T2, IL-6R (Homo sapiens, UniProt P08887); assay: MST binding affinity of resynthesized NNP hits to IL-6R; details: MST, NNP2 library hit, target SIL-6R, one-site binding model
T2 construct: purchased Creative Biomart IL6R-584H
T2 sequence (P08887 20-355 limits assumed): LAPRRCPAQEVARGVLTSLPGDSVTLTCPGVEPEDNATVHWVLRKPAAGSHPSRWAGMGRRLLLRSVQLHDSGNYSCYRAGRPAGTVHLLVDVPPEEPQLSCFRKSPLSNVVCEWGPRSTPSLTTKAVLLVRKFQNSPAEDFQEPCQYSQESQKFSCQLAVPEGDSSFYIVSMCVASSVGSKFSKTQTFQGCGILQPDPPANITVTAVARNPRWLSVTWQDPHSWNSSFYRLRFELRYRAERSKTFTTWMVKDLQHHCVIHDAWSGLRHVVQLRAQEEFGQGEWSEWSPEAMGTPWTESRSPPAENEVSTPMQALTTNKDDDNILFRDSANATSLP
Protocol: as §1

Compound | Kd (ASGPR) [nM] | further results
CC(C)C[C@H](NC(=O)[C@@H](CCCNC(=N)N)NC(=O)[C@@H](CCCCN)NC(=O)[C@@H](CCC(=O)O)NC(=O)[C@@H](Cc1ccccc1)NC(=O)Cc1ccc(CNC(=O)[C@H](Cc2ccccc2)NC(=O)[C@@H](CO)NC(=O)[C@@H](CCC(=O)O)NC(=O)[C@H]2CCCN2C(=O)[C@@H](CC(C)C)NC(=O)c2ccc3c(c2)C(=O)OC32c3ccc(O)cc3Oc3cc(O)ccc32)cc1)C(=O)NCc1ccc(CC(=O)N[C@H](Cc2ccc(O)cc2)C(=O)N[C@H](CC(N)=O)C(=O)N[C@H](CCCNC(=N)N)C(=O)N[C@H](Cc2c[nH]cn2)C(=O)N[C@@H](Cc2ccccc2)C(=O)NCc2ccc(CC(=O)N[C@H](Cc3ccc(O)cc3)C(=O)N[C@@H](C(=O)N3CCC[C@@H]3C(=O)N[C@H](CCCNC(=N)N)C(=O)N[C@@H](C)C(=O)NCc3ccc(CC(=O)N[C@H](CCCNC(=N)N)C(=O)N[C@H](Cc4ccccc4)C(=O)N4CCC[C@@H]4C(=O)N[C@@H](C(=O)NCC(=O)NCc4ccc(CC(=O)N[C@H](CC(C)C)C(=O)N5CCC[C@@H]5C(=O)N[C@H](CCCNC(=N)N)C(=O)N[C@@H](C(=O)NCC(=O)NCc5ccc(CC(N)=O)cc5)[C@H](C)O)cc4)C(C)C)cc3)[C@H](C)O)cc2)cc1 [ASGPR-9-12] (5FAM-[dL][dP][dE][dS]F[X1][dF][dE][dK][dR]L[X1][dY][dN][dR][dH]F[X1][dY][dT][dP][dR]A[X1][dR][dF][dP][dV]G[X1][dL][dP][dR][dT]G-{NHCH2C6H4(4-CH2CONH2)}) | 6 | –
CC(C)C[C@H](NC(=O)[C@@H](CCCNC(=N)N)NC(=O)[C@@H](CCCCN)NC(=O)[C@@H](CCC(=O)O)NC(=O)[C@@H](Cc1ccccc1)NC(=O)Cc1ccc(CNC(=O)[C@H](Cc2ccccc2)NC(=O)[C@@H](CO)NC(=O)[C@@H](CCC(=O)O)NC(=O)[C@H]2CCCN2C(=O)[C@@H](CC(C)C)NC(=O)c2ccc3c(c2)C(=O)OC32c3ccc(O)cc3Oc3cc(O)ccc32)cc1)C(=O)NCc1ccc(CC(=O)NCC(=O)N2CCC[C@@H]2C(=O)N[C@H](CCCNC(=N)N)C(=O)N[C@H](CO)C(=O)N[C@@H](Cc2ccccc2)C(=O)NCc2ccc(CC(=O)N3CCC[C@@H]3C(=O)N[C@H](CCCCN)C(=O)N[C@H](Cc3ccc(O)cc3)C(=O)N[C@H](CCCNC(=N)N)C(=O)N[C@@H](Cc3ccccc3)C(=O)NCc3ccc(CC(=O)N[C@H](CCCNC(=N)N)C(=O)N[C@H](Cc4ccccc4)C(=O)N4CCC[C@@H]4C(=O)N[C@@H](C(=O)NCC(=O)NCc4ccc(CC(=O)N[C@H](CC(C)C)C(=O)N5CCC[C@@H]5C(=O)N[C@H](CCCNC(=N)N)C(=O)N[C@@H](C(=O)NCC(=O)NCc5ccc(CC(N)=O)cc5)[C@H](C)O)cc4)C(C)C)cc3)cc2)cc1 [ASGPR-9-3] (5FAM-[dL][dP][dE][dS]F[X1][dF][dE][dK][dR]L[X1]G[dP][dR][dS]F[X1][dP][dK][dY][dR]F[X1][dR][dF][dP][dV]G[X1][dL][dP][dR][dT]G-{NHCH2C6H4(4-CH2CONH2)}) | 330 | –
CC(C)C[C@H](NC(=O)CNC(=O)[C@@H](Cc1c[nH]cn1)NC(=O)[C@@H](CCCNC(=N)N)NC(=O)[C@H]1CCCN1C(=O)Cc1ccc(CNC(=O)[C@H](Cc2ccccc2)NC(=O)[C@@H](CO)NC(=O)[C@@H](CCCNC(=N)N)NC(=O)[C@H]2CCCN2C(=O)CNC(=O)Cc2ccc(CNC(=O)[C@H](C)NC(=O)[C@@H](CCCNC(=N)N)NC(=O)[C@H]3CCCN3C(=O)[C@H](NC(=O)CNC(=O)Cc3ccc(CNC(=O)[C@H](Cc4ccccc4)NC(=O)[C@@H](CO)NC(=O)[C@@H](CCC(=O)O)NC(=O)[C@H]4CCCN4C(=O)[C@@H](CC(C)C)NC(=O)c4ccc5c(c4)C(=O)OC54c5ccc(O)cc5Oc5cc(O)ccc54)cc3)C(C)C)cc2)cc1)C(=O)NCc1ccc(CC(=O)N[C@H](CCCNC(=N)N)C(=O)N[C@H](Cc2ccccc2)C(=O)N2CCC[C@@H]2C(=O)N[C@@H](C(=O)NCC(=O)NCc2ccc(CC(=O)N[C@H](CC(C)C)C(=O)N3CCC[C@@H]3C(=O)N[C@H](CCCNC(=N)N)C(=O)N[C@@H](C(=O)NCC(=O)NCc3ccc(CC(N)=O)cc3)[C@H](C)O)cc2)C(C)C)cc1 [ASGPR-9-14] (5FAM-[dL][dP][dE][dS]F[X1]G[dV][dP][dR]A[X1]G[dP][dR][dS]F[X1][dP][dR][dH]GL[X1][dR][dF][dP][dV]G[X1][dL][dP][dR][dT]G-{NHCH2C6H4(4-CH2CONH2)}) | 20 | –
CC(C)C[C@H](NC(=O)[C@@H](CCCNC(=N)N)NC(=O)[C@@H](C)NC(=O)Cc1ccc(CNC(=O)[C@H](CC(C)C)NC(=O)[C@@H](CCCNC(=N)N)NC(=O)[C@@H](CCC(=O)O)NC(=O)Cc2ccc(CNC(=O)[C@@H](NC(=O)[C@@H](C)NC(=O)CNC(=O)Cc3ccc(CNC(=O)[C@@H](NC(=O)[C@@H](CCCNC(=N)N)NC(=O)[C@H]4CCCN4C(=O)Cc4ccc(CNC(=O)[C@H](CC(C)C)NC(=O)[C@H](NC(=O)[C@@H](CC(N)=O)NC(=O)Cc5ccc(CNC(=O)[C@H](CC(C)C)NC(=O)[C@@H](CCCNC(=N)N)NC(=O)[C@@H](CC(C)C)NC(=O)Cc6ccc(CNC(=O)[C@H](Cc7ccccc7)NC(=O)[C@@H](Cc7c[nH]c8ccccc78)NC(=O)[C@@H](CCCNC(=N)N)NC(=O)c7ccc8c(c7)C(=O)OC87c8ccc(O)cc8Oc8cc(O)ccc87)cc6)cc5)[C@H](C)O)cc4)C(C)C)cc3)C(C)C)cc2)cc1)C(=O)NCc1ccc(CC(=O)N2CCC[C@@H]2C(=O)N[C@H](CCCNC(=N)N)C(=O)N[C@@H](C)C(=O)NCc2ccc(CC(=O)N[C@H](Cc3ccccc3)C(=O)N[C@H](CCCNC(=N)N)C(=O)NCC(=O)NCc3ccc(CC(N)=O)cc3)cc2)cc1 [IL6R-87-5, Fluorescein-(D)Arg-(D)Trp-(L)Phe-PAM-(D)Leu-(D)Arg-(L)Leu-PAM-(D)Asn-(D)Thr-(L)Leu-PAM-(D)Pro-(D)Arg-(L)Val-PAM-Gly-(D)Ala-(L)Val-PAM-(D)Glu-(D)Arg-(L)Leu-PAM-(D)Ala-(D)Arg-(L)Leu- PAM-(D)Pro-(D)Arg-(L)Ala-PAM-(D)Phe-(D)Arg-Gly-PAM] (5FAM-[dR][dW]F[X1][dL][dR]L[X1][dN][dT]L[X1][dP][dR]V[X1]G[dA]V[X1][dE][dR]L[X1][dA][dR]L[X1][dP][dR]A[X1][dF][dR]G-{NHCH2C6H4(4-CH2CONH2)}) | – | Kd (IL-6R): 330 nM
CC(C)C[C@H](NC(=O)[C@@H](CCCNC(=N)N)NC(=O)[C@@H](C)NC(=O)Cc1ccc(CNC(=O)[C@H](Cc2ccccc2)NC(=O)[C@@H](CCC(=O)O)NC(=O)[C@H]2CCCN2C(=O)Cc2ccc(CNC(=O)[C@@H](NC(=O)[C@@H](CCCNC(=N)N)NC(=O)[C@@H](Cc3c[nH]c4ccccc34)NC(=O)Cc3ccc(CNC(=O)[C@H](CC(C)C)NC(=O)[C@@H](CCC(=O)O)NC(=O)[C@@H](CCCCN)NC(=O)Cc4ccc(CNC(=O)[C@H](Cc5ccccc5)NC(=O)[C@@H](CO)NC(=O)[C@@H](CCCNC(=N)N)NC(=O)Cc5ccc(CNC(=O)[C@H](Cc6ccccc6)NC(=O)[C@@H](CO)NC(=O)[C@@H](CCC(=O)O)NC(=O)Cc6ccc(CNC(=O)[C@H](Cc7ccccc7)NC(=O)[C@H](NC(=O)[C@@H](CC(N)=O)NC(=O)c7ccc8c(c7)C(=O)OC87c8ccc(O)cc8Oc8cc(O)ccc87)C(C)C)cc6)cc5)cc4)cc3)C(C)C)cc2)cc1)C(=O)NCc1ccc(CC(=O)N2CCC[C@@H]2C(=O)N[C@H](CCCNC(=N)N)C(=O)N[C@@H](C)C(=O)NCc2ccc(CC(=O)N[C@H](Cc3ccccc3)C(=O)N[C@H](CCCNC(=N)N)C(=O)NCC(=O)NCc3ccc(CC(N)=O)cc3)cc2)cc1 [IL6R-87-4] (5FAM-[dN][dV]F[X1][dE][dS]F[X1][dR][dS]F[X1][dK][dE]L[X1][dW][dR]V[X1][dP][dE]F[X1][dA][dR]L[X1][dP][dR]A[X1][dF][dR]G-{NHCH2C6H4(4-CH2CONH2)}) | – | Kd (IL-6R; read-out: KD (nM) [95% conf. int]): 22 nM
